Measurements from PubChem BioAssay (NCI).
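Here, GI50 denotes the concentration required for 50% inhibition of growth. The concentration for full growth arrest is given as TGI.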

How the values were obtained:
Assay in all cases: NCI-60 cell line screen, 384-well format
NCI-H322M lung = tested on: NCI-H322M lung
HCT-116 colon = tested on: HCT-116 colon
786-0 renal = tested on: 786-0 renal
CAKI-1 renal = tested on: CAKI-1 renal
MCF7 breast = tested on: MCF7 breast
LOX IMVI melanoma = tested on: LOX IMVI melanoma
NCI-H226 lung = tested on: NCI-H226 lung
HCT-15 colon = tested on: HCT-15 colon
SK-MEL-28 melanoma = tested on: SK-MEL-28 melanoma
TK-10 renal = tested on: TK-10 renal
SR leukemia = tested on: SR leukemia
SNB-19 CNS = tested on: SNB-19 CNS
NCI-H23 lung = tested on: NCI-H23 lung

NC1(c2ccc(-c3nc4ccn5c(=O)[nH]nc5c4cc3-c3ccccc3)cc2)CCC1
GI50 (NCI-H322M lung): 2440 nM
TGI (NCI-H322M lung): 10200 nM
GI50 (HCT-116 colon): 1520 nM
TGI (HCT-116 colon): 2960 nM
GI50 (786-0 renal): 1070 nM
TGI (786-0 renal): 2320 nM
GI50 (CAKI-1 renal): 883 nM
TGI (CAKI-1 renal): 2600 nM
GI50 (MCF7 breast): 135 nM
TGI (MCF7 breast): 1720 nM
GI50 (LOX IMVI melanoma): 1580 nM
TGI (LOX IMVI melanoma): 2950 nM
GI50 (NCI-H226 lung): 2080 nM
TGI (NCI-H226 lung): 7360 nM
GI50 (HCT-15 colon): 1400 nM
TGI (HCT-15 colon): 2780 nM
GI50 (SK-MEL-28 melanoma): 1200 nM
TGI (SK-MEL-28 melanoma): 2500 nM
GI50 (TK-10 renal): 1340 nM
TGI (TK-10 renal): 3900 nM
GI50 (SR leukemia): 1140 nM
TGI (SR leukemia): 2360 nM
GI50 (SNB-19 CNS): 2550 nM
TGI (SNB-19 CNS): 7450 nM
GI50 (NCI-H23 lung): 2490 nM
TGI (NCI-H23 lung): 7480 nM
